The target in the experiment is T1, HCV polymerase (NS5B570n-Con1) (Hepatitis C virus genotype 1b, UniProt Q9WMX2).
T1 construct: contains a 21 amino acid deletion at the C-terminus relative to the full-length HCV polymerase; 6-histidine (N); made in house; host or cells: E. coli strain BL21(DE) pLysS (pET17b)
The experiment is described as follows: biochemical. The arrangement: species or system HCV Con1 strain.

[1] abbreviates: IC50 HCV NS5B RNA Polymerase Assay, values without asterisk, 20 nM NS5B570n-Con1 enzyme, 20 nM cIRES RNA template.
Setting [2] is: IC50 HCV NS5B RNA Polymerase Assay (values with asterisk), values with asterisk: cIRES RNA template, 3 nM NS5B570n-Con1.
Where [3] appears, read: values without asterisk, 20 nM NS5B570n-Con1 enzyme, 20 nM cIRES RNA template, read-out: IC50 HCV NS5B RNA Polymerase Assay.
[4] abbreviates: read-out: IC50 HCV NS5B RNA Polymerase Assay, values without asterisk, 20 nM NS5B570n-Con1 enzyme, 20 nM cIRES RNA template.

Experimental findings from patent US8273773B2 (priority 2008, dated 2012) are described below.

pIC50: −log10 of the molar value. Read-outs that look alike come from different tables or passages of the source.
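Further: recombinant His-tagged enzyme from E. coli, radiolabeled nucleotide incorporation into acid-insoluble RNA read by scintillation after filtration, no-enzyme background subtracted, activity relative to positive control.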

What is called pIC50 is −log10 of the IC50, conventionally taken in molar units. As for `CCOc1nc(-c2cc(-c3ccc[nH]c3=O)cc(C(C)(C)C)c2OC)cc2ccc(NS(C)(=O)=O)cc12` [II-9, N-{3-[3-tert-Butyl-2-methoxy-5-(2-oxo-1,2-dihydro-pyridin-3-yl)-phenyl]-1-ethoxy-isoquinolin-7-yl}-methanesulfonamide], under setting [1], the pIC50 was 8.52. As to `CS(=O)(=O)Nc1ccc(/C=C/c2cc(-c3ccc[nH]c3=O)cc(C3(F)CCC3)c2)cc1` [I-271, N-(4-{(E)-2-[3-(1-Fluoro-cyclobutyl)-5-(2-oxo-1,2-dihydro-pyridin-3-yl)-phenyl]-vinyl}-phenyl)-methanesulfonamide], the pIC50 under setting [2] is 8.40. Regarding `COc1c(C(=O)NCc2ccccc2)cc(-c2ccc[nH]c2=O)cc1C(C)(C)C` [I-37], the pIC50 under setting [1] is 6.00.

The compound `COc1c(NC(=O)c2ccc(N)cc2C(F)(F)F)cc(-c2ccc[nH]c2=O)cc1C(C)(C)C` [I-279] gave a pIC50 under setting [1] of 6.98.

As for `COc1c(/C=C/c2ccc(NS(C)(=O)=O)cc2)cc(-c2ccc[nH]c2=O)cc1C(C)(C)OC` [I-289, N-(4-{(E)-2-[2-Methoxy-3-(1-methoxy-1-methyl-ethyl)-5-(2-oxo-1,2-dihydro-pyridin-3-yl)-phenyl]-vinyl}-phenyl)-methanesulfonamide], the pIC50 under setting [2] is 8.70.

`COc1c(CC(C(=O)O)c2ccc(NS(C)(=O)=O)cc2)cc(-c2ccc[nH]c2=O)cc1C(C)(C)C` (stereo not shown) [I-179, 3-[3-tert-Butyl-2-methoxy-5-(2-oxo-1,2-dihydro-pyridin-3-yl)-phenyl]-2-(4-methanesulfonylamino-phenyl)-propionic acid] gave a pIC50 under setting [1] of 8.10. The same measure, in the same setting: then `COc1c(/C=C/c2ccc(NS(C)(=O)=O)nc2)cc(-c2cc(F)c[nH]c2=O)cc1C(C)(C)C` [I-175], with 8.22.

Under setting [2], `CS(=O)(=O)Nc1ccc(/C=C/c2cc(-c3cc(F)c[nH]c3=O)cc(C3(Cl)CC3)c2)cc1` [I-273, N-(4-{(E)-2-[3-(1-Chloro-cyclopropyl)-5-(5-fluoro-2-oxo-1,2-dihydro-pyridin-3-yl)-phenyl]-vinyl}-phenyl)-methanesulfonamide] gave a pIC50 of 8.52. With `COc1c(C(=O)Nc2cccc(CO)c2C)cc(-c2ccc[nH]c2=O)cc1C(C)(C)C` [I-78], the pIC50 under setting [1] was 5.95. The compound `COCCc1cc(NS(C)(=O)=O)ccc1/C=C/c1cc(-c2cc(F)c[nH]c2=O)cc(C(C)(C)C)c1OC` [I-227, N-[4-{(E)-2-[3-tert-Butyl-5-(5-fluoro-2-oxo-1,2-dihydro-pyridin-3-yl)-2-methoxy-phenyl]-vinyl}-3-(2-methoxy-ethyl)-phenyl]-methanesulfonamide] gave a pIC50 under setting [2] of 9.00. On the same count and under the same terms, the figure for `CCOc1c(/C=C/c2ccc(NS(C)(=O)=O)cc2)cc(-c2ccc[nH]c2=O)cc1C(C)(C)C` [I-249] is 7.96.

In turn, `COc1c(NC(=O)c2ccc(NC(C)=O)cc2)cc(-c2ccc[nH]c2=O)cc1C(C)(C)C` [I-277] gave a pIC50 under setting [1] of 6.45.

Under setting [1], `COc1c(C(=O)Nc2ccccc2C)cc(-c2ccc[nH]c2=O)cc1C(C)(C)C` [I-79] showed a pIC50 of 5.93. Still for that read-out and setting: then `CC(C)(C)c1cc(C#Cc2ccc(NS(C)(=O)=O)cc2F)c(O)c(-c2ccc[nH]c2=O)c1` [I-217, N-{4-[5-tert-Butyl-2-hydroxy-3-(2-oxo-1,2-dihydro-pyridin-3-yl)-phenylethynyl]-3-fluoro-phenyl}-methanesulfonamide], with 7.16; and `COc1c(C(=O)N2CCCC(CO)C2)cc(-c2ccc[nH]c2=O)cc1C(C)(C)C` (stereo not shown) [I-24], with 5.82. Turning to `COc1c(/C=C/c2ccc(NS(C)(=O)=O)cn2)cc(-c2ccc[nH]c2=O)cc1C1(C(F)F)CC1` [I-258, N-(6-{(E)-2-[3-(1-Difluoromethyl-cyclopropyl)-2-methoxy-5-(2-oxo-1,2-dihydro-pyridin-3-yl)-phenyl]-vinyl}-pyridin-3-yl)-methanesulfonamide], the pIC50 under setting [2] is 9.00. In the case of `O=C(O)c1ccc([N+](=O)[O-])c(Cl)c1` [I-131], the pIC50 under setting [3] is 8.52. Turning to `COc1c(/C=C/c2ccc(NS(=O)(=O)CC(F)(F)F)cn2)cc(-c2cc(F)c[nH]c2=O)cc1C(C)(C)C` [I-229, 2,2,2-Trifluoro-ethanesulfonic acid (6-{(E)-2-[3-tert-butyl-5-(5-fluoro-2-oxo-1,2-dihydro-pyridin-3-yl)-2-methoxy-phenyl]-vinyl}-pyridin-3-yl)-amide], the pIC50 under setting [2] was 8.70. Under setting [1], `COc1c(NC(=O)c2ccc(NS(C)(=O)=O)cc2OCCN(C)C)cc(-c2ccc[nH]c2=O)cc1C(C)(C)C` [I-285] gave a pIC50 of 6.83. On the same count and under the same terms, the figure for `COCCNc1ccc(C(=O)Nc2cc(-c3ccc[nH]c3=O)cc(C(C)(C)C)c2OC)cn1` [I-254, N-[3-tert-Butyl-2-methoxy-5-(2-oxo-1,2-dihydro-pyridin-3-yl)-phenyl]-6-(2-methoxy-ethylamino)-nicotinamide] is 6.85. The compound `COc1ccc(-c2cc(/C=C/c3ccc(NS(C)(=O)=O)cc3C(=O)O)c(OC)c(C(C)(C)C)c2)c(=O)[nH]1` [I-211, 2-{(E)-2-[3-tert-Butyl-2-methoxy-5-(6-methoxy-2-oxo-1,2-dihydro-pyridin-3-yl)-phenyl]-vinyl}-5-methanesulfonylamino-benzoic acid] showed a negative logarithm of the IC50 (pIC50) under setting [2] of 8.40. For the compound `COc1c(/C=C/c2ccc(NS(C)(=O)=O)nc2)cc(-c2ccc[nH]c2=O)cc1C(C)(C)C` [I-172], under setting [1], the pIC50 was 8.52. In turn, `COc1c(C(=O)Nc2cccc(CO)c2)cc(-c2ccc[nH]c2=O)cc1C(C)(C)C` [I-97] gave a negative-log IC50 (pIC50) under setting [1] of 6.42. With `COCc1cc(NS(C)(=O)=O)ccc1/C=C/c1cc(-c2ccc(C)[nH]c2=O)cc(C(C)(C)C)c1OC` [I-208, N-(4-{(E)-2-[3-tert-Butyl-2-methoxy-5-(6-methyl-2-oxo-1,2-dihydro-pyridin-3-yl)-phenyl]-vinyl}-3-methoxymethyl-phenyl)-methanesulfonamide], the pIC50 under setting [2] was 9.00.

For `COc1c(CC(CO)c2ccc(NS(C)(=O)=O)cc2)cc(-c2ccc[nH]c2=O)cc1C(C)(C)C` (stereo not shown) [I-176], the pIC50 under setting [4] is 8.22.

Turning to `CC(C)(C)c1cc(/C=C/c2ccc(NS(C)(=O)=O)cn2)c(O)c(-c2ccc[nH]c2=O)c1` [I-167, N-(6-{(E)-2-[5-tert-Butyl-2-hydroxy-3-(2-oxo-1,2-dihydro-pyridin-3-yl)-phenyl]-vinyl}-pyridin-3-yl)-methanesulfonamide], the negative-log IC50 (pIC50) under setting [1] was 7.68.

In the case of `COc1c(NC(=O)c2ccc(NCC(F)(F)F)nn2)cc(-c2ccc[nH]c2=O)cc1C(C)(C)C` [I-248, 6-(2,2,2-Trifluoro-ethylamino)-pyridazine-3-carboxylic acid [3-tert-butyl-2-methoxy-5-(2-oxo-1,2-dihydro-pyridin-3-yl)-phenyl]-amide], the pIC50 under setting [1] is 7.72. `COc1c(C(=O)NC2CCCCC2CO)cc(-c2ccc[nH]c2=O)cc1C(C)(C)C` (stereo not shown) [I-93] gave a negative logarithm of the IC50 (pIC50) under setting [1] of 5.72. In the case of `COc1c(/C=C/c2ccc(NS(C)(=O)=O)cc2CN2CCOC2=O)cc(-c2cc(F)c[nH]c2=O)cc1C(C)(C)C` [I-220, N-[4-{(E)-2-[3-tert-Butyl-5-(5-fluoro-2-oxo-1,2-dihydro-pyridin-3-yl)-2-methoxy-phenyl]-vinyl}-3-(2-oxo-oxazolidin-3-ylmethyl)-phenyl]-methanesulfonamide], the negative-log IC50 (pIC50) under setting [2] was 8.30.

On to `COc1c(/C=C(/CO)c2ccc(NS(C)(=O)=O)cc2)cc(-c2ccc[nH]c2=O)cc1C(C)(C)C` [I-145], for which the negative-log IC50 (pIC50) under setting [1] was 7.28. On to `COc1c(CCc2ccc(NS(C)(=O)=O)cc2C(=O)O)cc(-c2cc(F)c[nH]c2=O)cc1C(C)(C)C` [I-190, 2-{2-[3-tert-Butyl-5-(5-fluoro-2-oxo-1,2-dihydro-pyridin-3-yl)-2-methoxy-phenyl]-ethyl}-5-methanesulfonylamino-benzoic acid], for which, under setting [2], the pIC50 is 9.00. On to `COc1cc(C(=O)O)ccc1[N+](=O)[O-]` [I-130], for which the pIC50 under setting [3] was 8.52. Take `COc1c(NC(=O)c2ccc(N)cc2OCCN(C)C)cc(-c2ccc[nH]c2=O)cc1C(C)(C)C` [I-284]: the pIC50 under setting [1] was 5.20.

Consider `COc1c(/C=C/c2ccncc2C#N)cc(-c2ccc[nH]c2=O)cc1C(C)(C)C` [I-245, 4-{(L)-2-[3-tert-Butyl-2-methoxy-5-(2-oxo-1,2-dihydro-pyridin-3-yl)-phenyl]-vinyl}-nicotinonitrile], for which, under setting [2], the pIC50 is 9.00.

For `COc1c(/C=C/c2ccc(NS(C)(=O)=O)nn2)cc(-c2ccc[nH]c2=O)cc1C(C)(C)C` [I-182], the pIC50 under setting [4] was 8.05. For `CC(C)(C)c1cc(/C=C/c2ccc(NS(C)(=O)=O)cc2C(=O)O)cc(-c2ccc[nH]c2=O)c1` [I-159, 2-{(E)-2-[3-tert-Butyl-5-(2-oxo-1,2-dihydro-pyridin-3-yl)-phenyl]-vinyl}-5-methanesulfonylamino-benzoic acid], the pIC50 under setting [1] was 8.10. The same measure, in the same setting: then `COc1c(C(=O)NCc2ccncc2)cc(-c2ccc[nH]c2=O)cc1C(C)(C)C` [I-38], with 6.03. With `COc1c(/C=C/c2ccccc2C(=O)O)cc(-c2ccc[nH]c2=O)cc1C(C)(C)C` [I-246, 2-{(E)-2-[3-tert-Butyl-2-methoxy-5-(2-oxo-1,2-dihydro-pyridin-3-yl)-phenyl]-vinyl}-benzoic acid], the pIC50 under setting [2] is 9.00.

`COc1c(CC(CN(C)C)c2ccc(NS(C)(=O)=O)cc2)cc(-c2ccc[nH]c2=O)cc1C(C)(C)C` (stereo not shown) [I-192, N-(4-{2-[3-tert-Butyl-2-methoxy-5-(2-oxo-1,2-dihydro-pyridin-3-yl)-phenyl]-1-dimethylaminomethyl-ethyl}-phenyl)-methanesulfonamide]: the pIC50 under setting [1] was 7.55.

Take `COc1c(/C=C/c2ccc(NS(C)(=O)=O)cc2CN(C)C)cc(-c2cc(F)c[nH]c2=O)cc1C(C)(C)C` [I-221, N-(4-{(E)-2-[3-tert-Butyl-5-(5-fluoro-2-oxo-1,2-dihydro-pyridin-3-yl)-2-methoxy-phenyl]-vinyl}-3-dimethylaminomethyl-phenyl)-methanesulfonamide]: the pIC50 under setting [2] is 7.96.
